The test system of assay [1] is T. gondii. Kind of assay: Anti-toxoplasma screening (TgLuc+ luciferase growth assay in HFF host cells). It is filed as cell-based, Toxoplasma gondii. The text has this: b) Anti-toxoplasma Screening:
For screening bioactivity of test molecules against T. gondii, a transgenic line of the parasite (TgLuc+) expressing the luciferase gene is used [Edwin Kamau, Tracy Meehan, Mark D. Lavine, Gustavo Arrizabalaga, Gabriela Mustata Wilson and Jon Boyle. A Novel Benzodioxole-Containing Inhibitor of Toxoplasmagondii Growth Alters the Parasite Cell Cycle. Antimicrob Agents Chemother. 2011, 55(12): 5438-5451]. The parental parasite used to generate the TgLuc+ strain is aType I (RH) virulent strain (ATCC reference 50174D), which can also be used for in vivo studies in mice, if needed. The tachyzoite stage of the parasites are routinely cultured in the laboratory using standard protocols [Roos D S, Donald R G, Morrissette N S, Moulton A L. Molecular tools for genetic dissection of the protozoan parasite Toxoplasma gondii. Methods Cell Biol. 1994, 45:27-63]. In brief, a confluent monolayer of Human Foreskin Fibroblast (HFF; ATCC reference SCRS-1041) cells in culture are used as the host cells for infection with tachyzoitestage T. gondii. The culture media used to grow parasites is standard complete DMEM (Gibco BRL, USA) containing glucose (5.5 mM), glutamine (2 mM), Hepes (25 mM) and 1% dialyzed bovine fetal calf serum (Gibco BRL, USA). For bioactivity assays, the HFF cells are grown in 96 well plates and each well is infected with 1×10^4TgLuc+parasitesin the presence of 10 μM test molecules (in primary screens) in a total volume of 200 μL. After 2 days of incubation and growth in a 37° C. incubator maintaining 5% CO2, the 96 well plates are processed for luminescence measurements using the reagents in the luciferase assay kit (Promega, USA). The results are corrected for background (uninfected HFF cultures), and normalized against both positive (untreated parasite cultures) and negative (standard drug treated parasite cultures) to identify those molecules with % inhibition values >80% for further dose analysis and IC50 determination using a dilution series ranging from 10 μM to 1 nM. Data from the preliminary screen (@ 10 μM only) is shown in Table-1 and dose response experiments are underway.

The subject of assay [2] is Plasmodium falciparum (3D7). In words: Anti-malarial screening (SybrGreen parasite growth assay). It is filed as cell-based. Conditions: for inhibition at 10 µM: read-out: % inhibition (P. falciparum). As for the experimental part: a) Anti-malarial Screening:
Plasmodium falciparum (3D7; Malaria Research and Reference Reagent Resource Center ID NO: MRA-102) is cultured in the laboratory as per standard protocols [Moll K., Ljungström I., Perlmann H., Scherf A., and Wahlgren M., (Editors). Methods in Malaria Research. Joint publication by Malaria Research and Reference Reagent Resource Center (MR4), ATCC, USA and BioMalPar, EU. 2008]. Briefly, P. falciparum is cultured using 2% hematocrit washed RBCs, separated from freshly collected human blood, in RPMI media containing glutamine, sodium bicarbonate and antibiotics. Parasites are routinely synchronized using 5% sorbitol treatment. Anti-malarial screens are carried out in two stages: 1) a primary screen at a fixed concentration of 10 μM to find out % inhibition of growth; and 2) a dose assay for finding out the IC50 for hits identified from the primary screen. Assays are setup as follows. 200 μls of the diluted parasite culture (2% parasitemia and 2% hematocrit; at late ring stage), is added to each well in a 96 well plate pre-seeded with the compound of interest at the required concentration of 10 μM. The master stocks and dilutions of the compounds are prepared in cell culture grade DMSO. NOTE: DMSO only treatment control is done and the results are used for normalizing the data obtained from compound treatment. All compounds are plated in triplicates. Each 96 well plate also includes negative controls (compound untreated culture) and positive controls (standard anti-malarial treated culture). Standard anti-malarials used are chloroquine, artemisinine and atovaquone, each at 1 μM concentration. After plating, the culture is incubated in standard growth condition for 60 hours, after which the cultures are processed for testing the effect of compounds on parasite growth using SybrGreen staining and fluorescence measurements at […] emmission following excitation at 498 nm. Since only parasites have DNA (as RBCs are devoid of nucleus), the SybrGreen signal is a direct indictor of parasitemia in respective samples. Results are used to quantifying relative parasite growth (or conversely % inhibition of growth) in untreated, standard anti-malarial treated and test molecule treated P. falciparum cultures. […] Data from the preliminary screen (@ 10 μM only) along with data from the dose response experiment and IC50 values for the selected molecules are tabulated in Table-2.

The mark [3] stands for this setting: primary screen at 10 μM, TgLuc+ tachyzoites in HFF cells, 2 days incubation.
Where [4] appears, read: dose response, dilution series 10 μM to 1 nM, 3D7, read-out: IC50(P. falciparum).
Where [5] appears, read: primary screen at 10 μM, 3D7, 60 hours incubation.
The mark [6] stands for this setting: Toxoplasma gondii, 48 h; primary screen at 10 μM, TgLuc+ tachyzoites in HFF cells, 2 days incubation.
Where [7] appears, read: Plasmodium falciparum, 3D7, dose response, dilution series 10 μM to 1 nM, 3D7, read-out: IC50(P. falciparum).
The mark [8] stands for this setting: Plasmodium falciparum, primary screen at 10 μM, 3D7, 60 hours incubation.
Setting [9] is: Plasmodium falciparum, 3D7, 60 h.
[10] abbreviates: Plasmodium falciparum, 3D7, read-out: IC50(P. falciparum, μM), dose response, dilution series 10 μM to 1 nM, 3D7.

“And” between values parts separate entries of the source, which are not always exact repeats. Identical values can stand only once. Like-named read-outs stand apart in the source and are kept apart here.

This is an account of results in patent publication US10562922B2, “Silicon based cyclic compounds and pharmaceutical compositions for treating malaria and toxoplasmosis” (Council of Scientific and Industrial Research, priority 2016, dated 2020).

Consider “1,1-dibenzyl-4,4-diphenyl-1λ4,4-azasilinan-2-ylium bromide [NDS 100953]”, for which the “% inhibition (T. gondii)” value in assay [1] (setting [3]) is 39%. Further, the 50% inhibitory concentration (IC50) (commonly the concentration that gives 50% inhibition) in assay [2] (setting [4]) amounted to 1.69 µM. Further, the “% inhibition (P. falciparum)” value in assay [2] (setting [5]) is listed as 94.96%.
“1-benzyl-1-ethyl-4,4-diphenyl-1λ4,4-azasilinan-2-ylium iodide [NDS 100952]”: the half-inhibitory concentration (IC50) in assay [1] (dose response, dilution series 10 μM to 1 nM; read-out: IC50 (T gondii)) turned out to be 1240 nM; in assay [2] (setting [4]), 0.33 µM. For the same molecule, the “% inhibition (T. gondii)” value in assay [1] (setting [3]) was determined as 72.06%. Moreover, the “% inhibition (P. falciparum)” value in assay [2] (setting [5]) turned out to be 104.01%.
`c1ccc(CN2CC[Si](c3ccccc3)(c3ccccc3)CC2)cc1` [NDS 100860]: the inhibition (usually the drop in the measured response relative to a control, in per cent) at 10 µM amounted to 99.4% in assay [1] (setting [6]) and 112% in assay [2] (setting [8]). Besides, the IC50 in assay [1] (read-out: IC50 (T gondii); dose response, dilution series 10 μM to 1 nM) was 5030 nM and 2090 nM; in assay [2] (setting [7]) it was 1.75 µM; in assay [2] (setting [4]), 2.3 µM.
Take `C[N+]1(Cc2ccccc2)CC[Si](c2ccccc2)(c2ccccc2)CC1` [NDS 100861]: the inhibition at 10 µM in assay [1] (setting [6]) came to 36%; in assay [2] (setting [8]), 115%. Also, the IC50 amounted to 1.64 µM in assay [2] (setting [7]) and 2.39 µM in assay [2] (setting [4]).
In the case of `CC(C)=CC[N+]1(CC=C(C)C)CC[Si](c2ccccc2)(c2ccccc2)CC1` [NDS 101015, 1,1-bis(3-methylbut-2-en-1-yl)-4,4-diphenyl-1,4-azasilinan-1-ium bromide], the inhibition at 10 µM in assay [1] (setting [6]) is 20%; in assay [2] (setting [9]), 103%. The IC50 in assay [2] (setting [10]) was 0.48 µM; in assay [2] (read-out: IC50(P. falciparum), dose response, dilution series 10 μM to 1 nM, 3D7), 0.29 µM.
Turning to `c1ccc([Si]2(c3ccccc3)CC[N+]3(CCCCC3)CC2)cc1` [NDS 101017], the inhibition at 10 µM turned out to be 0% in assay [1] (setting [6]) and 87.1% in assay [2] (setting [8]). In assay [2] (setting [4]), the IC50 was 2.07 µM and 4.98 µM.
`C=CC[N+]1(C)CC[Si](c2ccccc2)(c2ccccc2)CC1` [NDS 101039, 1-allyl-1-methyl-4,4-diphenyl-1,4-azasilinan-1-ium bromide]: the inhibition at 10 µM was determined as 17% in assay [1] (setting [6]) and 76.2% in assay [2] (setting [9]). Besides, the IC50 in assay [2] (setting [10]) is 7.11 µM.
Consider `C[N+]1(C)CC[Si](c2ccccc2)(c2ccccc2)CC1` [NDS 101044, 1,1-dimethyl-4,4-diphenyl-1,4-azasilinan-1-ium iodide], for which the inhibition at 10 µM in assay [1] (setting [6]) came out at 0%; in assay [2] (setting [8]) it was 63.5%. Besides, the IC50 in assay [2] (setting [7]) turned out to be 2.46 µM.
